Tests used:
[1] = Displacement of [3H]SCH 23390 from dopamine D1-like receptor in Sprague-Dawley rat caudate putamen after 90 mins; type: tissue-based
D(3) dopamine receptor [2] = biological target: D(3) dopamine receptor (Rattus norvegicus, UniProt P19020); test: Displacement of [3H]R-(+)-7-OHDPAT from dopamine D3 receptor in Sprague-Dawley rat ventral striatum after 90 mins
D(2) dopamine receptor [3] = biological target: D(2) dopamine receptor (Rattus norvegicus, UniProt P61169); test: Displacement of [3H]Spiperone from dopamine D2-like receptor in Sprague-Dawley rat caudate putamen after 90 mins; type: tissue-based
D(3) dopamine receptor [4] = biological target: T1, D(3) dopamine receptor (Homo sapiens, UniProt P35462); settings: U2OS
Rattus norvegicus [5] = species on record: Rattus norvegicus; test: Selectivity ratio of Ki for dopamine D1-like receptor in Sprague-Dawley rat caudate putamen to Ki for dopamine D3 receptor in Sprague-Dawley rat ventral striatum; type: tissue-based
Rattus norvegicus [6] = species on record: Rattus norvegicus; test: Selectivity ratio of Ki for dopamine D2-like receptor in Sprague-Dawley rat caudate putamen to Ki for dopamine D3 receptor in Sprague-Dawley rat ventral striatum; type: tissue-based
D(2) dopamine receptor [7] = biological target: D(2) dopamine receptor (Homo sapiens, UniProt P14416); test: Displacement of [3H]N-methylspiperone from human dopamine D2 receptor expressed in HEK293 cells after 1 hr by liquid scintillation counting analysis; type: cell-based
D(3) dopamine receptor [8] = biological target: T1, D(3) dopamine receptor; test: Displacement of [3H]N-methylspiperone from human dopamine D3 receptor expressed in HEK293 cells after 1 hr by liquid scintillation counting analysis; type: cell-based
D(3) dopamine receptor [9] = biological target: T1, D(3) dopamine receptor

Chain of D(3) dopamine receptor (Rattus norvegicus, UniProt P19020) (P19020 whole entry): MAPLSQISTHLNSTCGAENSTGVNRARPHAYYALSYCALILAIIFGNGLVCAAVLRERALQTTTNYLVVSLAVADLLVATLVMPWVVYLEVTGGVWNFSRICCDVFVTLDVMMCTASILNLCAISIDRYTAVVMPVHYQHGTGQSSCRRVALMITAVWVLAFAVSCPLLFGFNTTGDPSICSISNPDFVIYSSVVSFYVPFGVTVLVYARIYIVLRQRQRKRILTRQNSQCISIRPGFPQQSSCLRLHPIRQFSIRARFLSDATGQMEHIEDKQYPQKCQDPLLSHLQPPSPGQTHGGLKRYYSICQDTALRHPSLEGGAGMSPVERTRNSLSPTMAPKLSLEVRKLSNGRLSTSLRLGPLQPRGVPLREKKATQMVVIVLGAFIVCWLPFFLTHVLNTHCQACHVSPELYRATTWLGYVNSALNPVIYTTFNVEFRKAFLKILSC
T1 sequence (P35462 whole entry): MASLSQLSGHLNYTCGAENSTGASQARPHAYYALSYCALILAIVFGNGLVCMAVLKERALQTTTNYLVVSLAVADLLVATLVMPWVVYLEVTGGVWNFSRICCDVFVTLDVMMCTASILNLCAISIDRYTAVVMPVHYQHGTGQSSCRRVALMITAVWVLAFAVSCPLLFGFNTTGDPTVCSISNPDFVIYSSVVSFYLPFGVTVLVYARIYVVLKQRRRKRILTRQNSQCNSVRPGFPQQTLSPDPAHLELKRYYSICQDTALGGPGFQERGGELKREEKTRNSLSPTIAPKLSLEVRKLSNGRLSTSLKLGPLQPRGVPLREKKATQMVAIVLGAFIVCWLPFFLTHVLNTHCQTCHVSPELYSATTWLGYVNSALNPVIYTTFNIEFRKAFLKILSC
Chain of D(2) dopamine receptor (Rattus norvegicus, UniProt P61169) (P61169 whole entry): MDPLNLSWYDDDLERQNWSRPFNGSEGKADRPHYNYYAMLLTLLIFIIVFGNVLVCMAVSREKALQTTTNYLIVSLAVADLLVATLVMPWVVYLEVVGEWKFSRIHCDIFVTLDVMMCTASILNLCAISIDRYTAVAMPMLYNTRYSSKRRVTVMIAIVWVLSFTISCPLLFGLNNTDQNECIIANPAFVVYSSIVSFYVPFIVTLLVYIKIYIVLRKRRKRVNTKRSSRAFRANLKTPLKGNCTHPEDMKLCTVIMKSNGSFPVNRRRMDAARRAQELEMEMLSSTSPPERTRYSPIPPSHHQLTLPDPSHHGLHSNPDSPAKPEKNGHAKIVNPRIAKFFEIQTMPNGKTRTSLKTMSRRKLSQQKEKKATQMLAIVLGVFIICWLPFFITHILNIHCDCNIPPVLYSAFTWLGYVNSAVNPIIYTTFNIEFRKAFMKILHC
Chain of D(2) dopamine receptor (Homo sapiens, UniProt P14416) (P14416 whole entry): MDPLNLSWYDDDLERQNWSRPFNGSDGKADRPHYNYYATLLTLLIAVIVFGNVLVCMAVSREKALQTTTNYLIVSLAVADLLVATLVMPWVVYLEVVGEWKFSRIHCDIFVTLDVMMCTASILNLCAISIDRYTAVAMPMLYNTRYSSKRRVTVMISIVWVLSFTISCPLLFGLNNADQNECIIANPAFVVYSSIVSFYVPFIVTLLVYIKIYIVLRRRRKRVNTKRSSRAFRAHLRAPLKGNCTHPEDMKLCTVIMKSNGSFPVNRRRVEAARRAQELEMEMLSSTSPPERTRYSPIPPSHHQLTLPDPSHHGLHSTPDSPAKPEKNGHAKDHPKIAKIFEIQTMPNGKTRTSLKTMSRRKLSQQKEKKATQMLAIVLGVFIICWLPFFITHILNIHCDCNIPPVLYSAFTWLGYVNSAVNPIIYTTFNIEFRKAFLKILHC

SMILES | Ki [1] | Ki (D(3) dopamine receptor [2]) | Ki (D(2) dopamine receptor [3]) | Ratio Ki (Rattus norvegicus [5]) | Ratio Ki (Rattus norvegicus [6]) | also measured
CCCN(CC[C@]1(O)C[C@@H](NC(=O)c2ccc3ccccc3c2)C1)[C@H]1C[C@@H]1c1ccc(Cl)cc1 | 20700 nM | 457 nM | > 100000 nM |  |  | 
CCCN(CC[C@]1(O)C[C@@H](NC(=O)c2ccc3ccccc3c2)C1)C1CC1c1ccc(Cl)cc1 (mixture of isomers) | 2200 nM |  |  |  |  | 
CCCN[C@H]1CCc2nc(N)sc2C1 |  |  |  |  |  | ED50 (D(3) dopamine receptor [4]): 3.7 nM
CCCN(CC[C@]1(O)C[C@@H](NC(=O)c2ccc3ccccc3c2)C1)[C@H]1C[C@@H]1c1ccccc1Cl (racemic) | 743 nM |  |  | 39 | 26 | 
CCc1cc(Cl)c(OC)c(C(=O)NC[C@@H]2CCCN2CC)c1O [ETICLOPRIDE] |  |  |  |  |  | Ki (D(2) dopamine receptor [7]): 0.086 nM
CCCN(CC[C@]1(O)C[C@@H](NC(=O)c2ccc3ccccc3c2)C1)[C@H]1C[C@@H]1c1ccccc1 | 3090 nM | 108 nM | 2140 nM | 29 | 20 | 
CCN1CCC[C@H]1CNC(=O)c1c(O)c(Cl)cc(Cl)c1OC [RACLOPRIDE] |  |  |  |  |  | Ki (D(3) dopamine receptor [8]): 13.4 nM
N[C@@H]1C[C@H]1c1ccccc1.N[C@H]1C[C@@H]1c1ccccc1 (racemic) [TRANYLCYPROMINE] |  |  | 58700 nM |  |  | 
Cc1ncoc1-c1nnc(SCCCN2CC3CC3(c3ccc(C(F)(F)F)cc3F)C2)n1C (stereo not drawn) | 38800 nM | 46 nM |  |  |  | 
CCCN(CC[C@]1(O)C[C@@H](NC(=O)c2ccc3ccccc3c2)C1)[C@@H]1C[C@H]1c1ccccc1 | 2820 nM | 44 nM | 1310 nM | 64 | 30 | 
CCCN(CC[C@]1(O)C[C@@H](NC(=O)c2ccc3ccccc3c2)C1)[C@H]1C[C@@H]1c1cccc(Cl)c1 (racemic) | 1800 nM |  | > 300000 nM | 64 |  | 
CCCN[C@H]1C[C@@H]1c1ccccc1 | 123000 nM | 1170 nM | 95600 nM | 105 | 82 | 
CCCN[C@@H]1C[C@H]1c1ccccc1 | 90600 nM | 1200 nM | 96600 nM | 76 | 81 | 
CCCN(CC[C@]1(O)C[C@@H](NC(=O)c2ccc3ccccc3c2)C1)[C@@H]1C[C@H]1c1ccc(Cl)cc1 | 25800 nM | 2.7 nM | > 300000 nM |  |  | Ki (D(2) dopamine receptor [7]): 623 nM; Ki (D(3) dopamine receptor [8]): 2.8 nM; IC50 (D(3) dopamine receptor [9]): 327 nM; ED50 (D(3) dopamine receptor [4]): > 100000 nM

Reference: ChEMBL document CHEMBL3259695 (J Med Chem, 2014)
